Source: the NIST ThermoML archive (doi:10.1016/j.jct.2017.08.006)
Numbers after ± are expanded uncertainties.

Key:
[1] = Liquid; for mass density: 293.15 K, 101.33 kPa, Pycnometric method
[2] = refractive index (Na D-line) (dimensionless); details: 101.33 kPa, Liquid, Standard Abbe refractometry
[3] = Boiling temperature at pressure P; details: Liquid, Ebulliometric method (Recirculating still)

SMILES | mass density [1] [kg/m3] | refractive index ([2]; 298.15 K) | vapor or sublimation pressure ([1]; 381.1 K, Ebulliometric method (Recirculating still)) [kPa] | Boiling temperature at pressure P ([3]; 5.01 kPa) [°C] | Boiling temperature at pressure P ([3]; 9.98 kPa) [°C] | Boiling temperature at pressure P ([3]; 14.69 kPa) [°C] | Boiling temperature at pressure P ([3]; 19.75 kPa) [°C] | Boiling temperature at pressure P ([3]; 26.67 kPa) [°C] | Boiling temperature at pressure P ([3]; 40.02 kPa) [°C] | Boiling temperature at pressure P ([3]; 53.72 kPa) [°C] | Boiling temperature at pressure P ([3]; 65.01 kPa) [°C] | Boiling temperature at pressure P ([3]; 79.21 kPa) [°C] | Boiling temperature at pressure P ([3]; 90 kPa) [°C] | Boiling temperature at pressure P ([3]; 101.33 kPa) [°C] | Boiling temperature at pressure P ([3]; 116.34 kPa) [°C] | Boiling temperature at pressure P ([3]; 120 kPa) [°C] | Boiling temperature at pressure P ([3]; 125.01 kPa) [°C] | Boiling temperature at pressure P ([3]; 130 kPa) [°C] | refractive index ([2]; 293.15 K)
CCCCO [butan-1-ol] | 809.5 ± 1 | 1.3971 ± 0.0007 |  |  |  |  |  |  |  |  |  |  |  |  |  |  |  |  | 
CC(C)CO [2-methyl-1-propanol] | 801.8 ± 1 | 1.3939 ± 0.0007 | 101.33 ± 0.51 |  |  |  |  |  |  |  |  |  |  |  |  |  |  |  | 
COCOCC(C)C [1-(methoxymethoxy)-2-methylpropane] | 832.5 ± 1 | 1.3827 ± 0.0007 |  | 33.5 ± 0.18 | 47 ± 0.16 | 55.23 ± 0.13 | 62.17 ± 0.12 | 69.60 ± 0.11 | 80.57 ± 0.11 | 89.19 ± 0.11 | 95.2 ± 0.1 | 101.51 ± 0.1 | 105.86 ± 0.1 | 109.98 ± 0.1 | 115.03 ± 0.1 | 116.21 ± 0.1 | 117.72 ± 0.1 | 119.27 ± 0.1 | 1.385 ± 0.0007
